Measurements as given in patent US12485104B2, “Amino acid derivatives containing a disulfanyl group as an inhibitor of NEP and APN for the prevention and treatment of trigeminal nerve pain” (KOS THERAPEUTICS, INC., priority 2018, dated 2025).

Legend:
[1] = test system: rats, migraine model induced by repeated injection of isosorbide dinitrate (ISDN); experiment: Persistent cephalic allodynia induced by recurrent ISDN (chronic migraine), von Frey test, IV treatment; type: in vivo; conditions: 20 mg/kg intravenously (FIG. 2)
Description: The effects of systemic administration of compound 1 on mechanical cephalic allodynia were tested in rats in a migraine model induced by repeated systemic injection of an NO donor, isosorbide dinitrate (ISDN). Indeed, the powerful vasodilating action of “NO donors” explains their particular propensity to trigger headache in healthy subjects and migraine attacks in migraine patients (Hansen & Olesen, Cephalalgia (2017), 37: 11-19).
The experiments were conducted on male Sprague-Dawley CD rats (200-250 g, Charles River Laboratories). A minimum delay of 7 days was respected before any experimentation. […]
(§1) The mechanical sensitivity of the periorbital region was measured by the von Frey test, which consists of applying a range of von Frey filaments in this region, calibrated to exert a constant force (expressed in grams) to determine the force (threshold) that leads to a head withdrawal reaction. […] The rats then received successive intraperitoneal injections of ISDN (10 mg/kg) and cutaneous sensitivity was assessed by means of the von Frey test. […] On the day of the experiment, the forces exerted by the von Frey filaments that led to head withdrawal were measured in each rat under controlled conditions every 30 minutes for 4 hours. […]

[2] = test system: rats, migraine model induced by single injection of isosorbide dinitrate (ISDN); experiment: Mechanical cephalic allodynia induced by single ISDN (acute migraine), von Frey test, oral treatment; type: in vivo; conditions: 50 mg/kg orally (FIG. 3)
Description: The effects of systemic administration of compound 1 on mechanical cephalic allodynia were tested in rats in a migraine model induced by single systemic injection of an NO donor, isosorbide dinitrate (ISDN). Indeed, the powerful vasodilating action of “NO donors” explains their particular propensity to trigger headache in healthy subjects and migraine attacks in migraine patients (Hansen & Olesen, Cephalalgia (2017), 37: 11-19).
The experiments were conducted on male Sprague-Dawley CD rats (200-250 g, Charles River Laboratories). A minimum delay of 7 days was respected before any experimentation.
(§2) The animals were first subjected to habituation sessions designed to reproduce the animals environmental conditions and handling by the experimenter during the final test.
as §1, with “an” for “successive”, “injection” for “injections”

[3] = test system: SJL mice, EAE model (hyperalgesia); experiment: Tail immersion test in multiple sclerosis model (experimental autoimmune encephalomyelitis, EAE); type: in vivo; conditions: for Nociceptive threshold (tail withdrawal latency time): 20 min after administration, 48° C. bath
Text: The multiple sclerosis model can be induced in SJL mice, female albino white mice, by the administration of an emulsion made up of a myeline fragment and complete Freund® adjuvant (Aicher et al., Pain (2004), 110: 560-570). Central nervous system inflammation appears at the end of around ten days=experimental autoimmune encephalomyelitis, or EAE.
Female SJL mice, purchased from Charles River Laboratories, arrive at the age of 5 weeks and are immunized at the age of 6 weeks. Each mouse receives, under mask anesthesia (2% isoflurane), an emulsion of a volume of 200 μL in the left flank, containing 150 μg of PLP139-151 (Proteolipid Protein Myelin, fragment 139-151) in 100 μL of sterile 0.9% NaCl as well as 100 μL of incomplete Freund® adjuvant (Sigma) completed by inactivated Mycobacterium tuberculosis (Difco, USA) at 4 mg/mL=complete adjuvant.
The symptoms of the disease are reported between D10 and D15, which is reflected by an acute phase, during which scores are high and the animals present a loss of pain sensitivity. This phase precedes a chronic phase which starts around D18 and is characterized by stabilization of the animals general condition and the onset of a significant lowering in the pain perception threshold (hyperalgic state) (Aicher et al., Pain (2004), 110: 560-570).
Nociceptive thresholds were determined from D12 by the tail immersion test.
Compound 1 is administered IP (intraperitoneally) at 50 mg/kg and 100 mg/kg in a EtOH/Tween 80/Water carrier (10/10/80) (100 μL per 10 g of mice). The measurement of time of tail withdrawal from a 48° C. bath is done at 20 min after injection (cut-off=10 sec).

healthy volunteers = experiment: Adverse effects observed during phase 1b clinical study; conditions: N = 6
Description: The doses indicated in the following table were administered 4 times a day for 5 days, the daily dose varying from 800 to 4000 mg, the total quantity over five days being comprised between 4000 and 20,000 mg.

[4] = test system: rats, chronic migraine model induced by repeated injection of isosorbide dinitrate (ISDN); experiment: Prevention of migraine attacks by oral administration, chronic ISDN model, von Frey test; type: in vivo
Description: The effects of oral administration of compound 1 on mechanical cephalic allodynia were tested in rats in a chronic migraine model induced by repeated systemic injection of an NO donor, isosorbide dinitrate (ISDN). Indeed, the powerful vasodilating action of “NO donors” explains their particular propensity to trigger headache in healthy subjects and migraine attacks in migraine patients (Hansen & Olesen, Cephalalgia (2017), 37: 11-19).
The experiments were conducted on male rats (10 rats per group of the Sprague-Dawley CD strain (200-250 g, Charles River Laboratories), randomly assigned into each group before experimentation. A minimum delay of 7 days was respected before any experimentation. The experiments were conducted with the experimenter blinded.
as §2
The mechanical sensitivity of the periorbital region was measured by the von Frey test, which consists of applying a range of von Frey filaments in this region, calibrated to exert a constant force (expressed in grams) to determine the force (threshold) that leads to a head withdrawal reaction. The rats were habituated to these tests for 5 days preceding the experiment for one hour, so that repeated measurements give reproducible results. […] The rats then received successive intraperitoneal injections of ISDN (10 mg/kg) and cutaneous sensitivity was assessed by means of the von Frey test. […]
Cutaneous mechanical sensitivity was measured before and on the test day (FIG. 4, single administration of compound 1 or FIG. 6, repeated administration of compound 1) or before and on the test day (Days 1, 2, 3, 4 and 5) (FIG. 5, repeated administration of compound 1) before injection and at 30 min intervals for 4 h in the different groups of rats receiving intraperitoneal ISDN (10 mg/kg, volume of 10 mL/kg). […]

[5] = 200 mg 4 times a day for 5 days
[6] = 400 mg 4 times a day for 5 days
[7] = 600 mg 4 times a day for 5 days
[8] = 800 mg 4 times a day for 5 days
[9] = 1000 mg 4 times a day for 5 days

SMILES: CCOC(=O)OC(C)OC(=O)CNC(=O)[C@@H](CSSC[C@@H](N)CCSC)Cc1ccccc1.O=C(O)/C=C/C(=O)O (stereo partly drawn) [Compound 1, (5S,10S)-10-benzyl-16-methyl-11,14,18-trioxo-15,17,19-trioxa-2,7,8-trithia-12-azahenicosan-5-aminium fumarate]
- Effect on cephalic cutaneous sensitivity (von Frey) [1]: considerably reduces cephalic cutaneous sensitivity
- Effect on cephalic cutaneous sensitivity (von Frey) [2]: considerably reduces cephalic cutaneous sensitivity
- Nociceptive threshold (tail withdrawal latency time) ([3]; 50 mg/kg IP, D21): 5.12 (4) seconds
- Nociceptive threshold (tail withdrawal latency time) ([3]; 50 mg/kg IP, D28): 4.14 (5) seconds
- Nociceptive threshold (tail withdrawal latency time) ([3]; 100 mg/kg IP, D28): 5.98 (5) seconds
- Nociceptive threshold (tail withdrawal latency time) ([3]; 100 mg/kg IP, D35): 5.46 (5) seconds
- Effect on hyperalgesia ([3]; 50 and 100 mg/kg IP (FIG. 1)): permits reducing hyperalgesia
- Subjects with Death (healthy volunteers; [5]): 0
- Subjects with LAE (limiting adverse event) (healthy volunteers; [5]): 0
- Subjects with SAE (serious adverse event) (healthy volunteers; [5]): 0
- Subjects with TEAEs, (%) (healthy volunteers; [5]): 16.7%
- TEAEs, E = number of adverse reactions (healthy volunteers; [5]): 3
- Subjects with Death (healthy volunteers; [6]): 0
- Subjects with LAE (limiting adverse event) (healthy volunteers; [6]): 0
- Subjects with SAE (serious adverse event) (healthy volunteers; [6]): 0
- Subjects with TEAEs, (%) (healthy volunteers; [6]): 83.3%
- TEAEs, E = number of adverse reactions (healthy volunteers; [6]): 12
- Subjects with Death (healthy volunteers; [7]): 0
- Subjects with LAE (limiting adverse event) (healthy volunteers; [7]): 0
- Subjects with SAE (serious adverse event) (healthy volunteers; [7]): 0
- Subjects with TEAEs, (%) (healthy volunteers; [7]): 66.7%
- TEAEs, E = number of adverse reactions (healthy volunteers; [7]): 7
- Subjects with Death (healthy volunteers; [8]): 0
- Subjects with LAE (limiting adverse event) (healthy volunteers; [8]): 0
- Subjects with SAE (serious adverse event) (healthy volunteers; [8]): 0
- Subjects with TEAEs, (%) (healthy volunteers; [8]): 100.0%
- TEAEs, E = number of adverse reactions (healthy volunteers; [8]): 10
- Subjects with Death (healthy volunteers; [9]): 0
- Subjects with LAE (limiting adverse event) (healthy volunteers; [9]): 0
- Subjects with SAE (serious adverse event) (healthy volunteers; [9]): 0
- Subjects with TEAEs, (%) (healthy volunteers; [9]): 66.7%
- TEAEs, E = number of adverse reactions (healthy volunteers; [9]): 15
- Effect on cutaneous cephalic sensitivity (von Frey) ([4]; 50 mg/kg orally once daily for 5 days, as a function of time after ISDN, versus carrier (FIG. 6)): significantly reduces cutaneous cephalic sensitivity
- Effect on cutaneous cephalic sensitivity (von Frey) ([4]; 50 mg/kg orally once on the experiment day (FIG. 4)): had no effect on cutaneous cephalic sensitivity
- Effect on cutaneous cephalic sensitivity (von Frey) ([4]; 50 mg/kg orally repeatedly over 5 days, before administration of ISDN, versus carrier (FIG. 5)): significantly reduces cutaneous cephalic sensitivity
